Assay [1] deals with MAPK14 (human) (UniProt Q16539). Kind of assay: Enzyme Assay. Conditions: A375; concentration not given here.
The target is the same in assay [2]. Kind of assay: Enzyme Assay. Particulars: A375; concentration not given here. The source holds these as a separate data set.

The structures appear in SMILES notation.

Sequence of MAPK14 (human) (Q16539 whole entry, looked up): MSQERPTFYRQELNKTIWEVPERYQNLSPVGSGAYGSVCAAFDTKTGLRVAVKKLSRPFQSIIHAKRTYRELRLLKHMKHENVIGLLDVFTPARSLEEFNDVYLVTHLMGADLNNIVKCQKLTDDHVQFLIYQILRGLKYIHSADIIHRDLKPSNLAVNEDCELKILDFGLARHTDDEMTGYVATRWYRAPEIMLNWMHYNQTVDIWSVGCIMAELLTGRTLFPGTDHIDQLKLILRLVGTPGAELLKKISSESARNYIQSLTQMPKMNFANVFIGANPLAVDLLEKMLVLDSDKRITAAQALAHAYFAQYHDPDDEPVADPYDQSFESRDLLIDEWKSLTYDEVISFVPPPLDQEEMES

Take `COc1cccc(-c2cc(=O)c3ccccc3o2)c1N`: the activity came out at 34.7% in assay [1] and 25.3% in assay [2].

As for `N#CC(=C(/N)Sc1ccccc1N)/C(C#N)=C(\N)Sc1ccccc1N`, the figures for the activity in assay [1] and in assay [2] were 18.9% and 6.32%, respectively.

(Values after the Kinase Knowledgebase extract (Sharma et al. 2016).)
